The values that follow are results of earlier work, collected in paper PMC7870075, “Physicochemical properties and formulation development of a novel compound inhibiting Staphylococcus aureus biofilm formation” (PLoS ONE, 2021).

On the set-up of the data set: method as in PMID 23433668. The following applies: cited from earlier work.

The structures appear in SMILES notation.

In the case of `C=CCn1c(NCC)nc2c(c1=O)C(C)(C)Cc1cc(OC)ccc1-2` [CCG-203592], the “half-life in mouse liver microsomes (t1/2)” value is 0.8 min.
